# The source made the active and inactive calls. No cut-off for these calls is given here.
# Key:
# Carbonic anhydrase 9 = Carbonic anhydrase 9 (Homo sapiens, UniProt Q16790)
# [1] = Cytotoxicity against human Hs 578T cells at 10 uM; assay type: functional; details: read-out: GI
# MDA-MB-468 = experiment: Cytotoxicity against human MDA-MB-468 cells at 10 uM; assay type: functional; details: read-out: GI
# MCF7 = experiment: Cytotoxicity against human MCF7 cells at 10 uM; assay type: functional; details: read-out: GI
# T47D = experiment: Cytotoxicity against human T47D cells at 10 uM; assay type: functional; details: read-out: GI
# DU-145 = experiment: Cytotoxicity against human DU145 cells at 10 uM; assay type: functional
# PC-3 = experiment: Cytotoxicity against human PC3 cells at 10 uM; assay type: functional; details: read-out: GI
# A498 = experiment: Cytotoxicity against human A498 cells at 10 uM; assay type: functional; details: read-out: GI
# NCI/ADR-RES = experiment: Cytotoxicity against human NCI-ADR-RES cells at 10 uM; assay type: functional
# LOX IMVI = experiment: Cytotoxicity against human LOXIMVI cells at 10 uM; assay type: functional; details: read-out: GI
# OVCAR-3 = experiment: Cytotoxicity against human OVCAR3 cells at 10 uM; assay type: functional; details: read-out: GI
# UACC-62 = experiment: Cytotoxicity against human UACC62 cells at 10 uM; assay type: functional; details: read-out: GI
# SK-MEL-2 = experiment: Cytotoxicity against human SK-MEL-2 cells at 10 uM; assay type: functional; details: read-out: GI
# SF-268 = experiment: Cytotoxicity against human SF268 cells at 10 uM; assay type: functional; details: read-out: GI
# SW-620 = experiment: Cytotoxicity against human SW620 cells at 10 uM; assay type: functional; details: read-out: GI
# SNB-75 = experiment: Cytotoxicity against human SNB75 cells at 10 uM; assay type: functional; details: read-out: GI
# KM12 = experiment: Cytotoxicity against human KM12 cells at 10 uM; assay type: functional; details: read-out: GI
# HT-29 = experiment: Cytotoxicity against human HT-29 cells at 10 uM; assay type: functional
# HOP-92 = experiment: Cytotoxicity against human HOP92 cells at 10 uM; assay type: functional; details: read-out: GI
# NCI-H460 = experiment: Cytotoxicity against human NCI-H460 cells at 10 uM; assay type: functional; details: read-out: GI
# A549 = experiment: Cytotoxicity against human A549 cells at 10 uM; assay type: functional; details: read-out: GI
# SR = experiment: Cytotoxicity against human SR cells at 10 uM; assay type: functional; details: read-out: GI
# MOLT-4 = experiment: Cytotoxicity against human MOLT4 cells at 10 uM; assay type: functional; details: read-out: GI
# RPMI-8226 = experiment: Cytotoxicity against human RPMI8226 cells at 10 uM; assay type: functional; details: read-out: GI
# K562 = experiment: Cytotoxicity against human K562 cells at 10 uM; assay type: functional; details: read-out: GI
# HL-60(TB) = experiment: Cytotoxicity against human HL-60(TB) cells at 10 uM; assay type: functional; details: read-out: GI
structure (smiles),measurement,setting,value
Cc1cc(S(=O)(=O)NC(=N)NNc2ccc(S(N)(=O)=O)cc2)c(SCc2cccc(C(F)(F)F)c2)cc1Cl,Ki,Carbonic anhydrase 9,21 nM
Cc1cc(S(=O)(=O)NC(=N)NCc2ccc(S(N)(=O)=O)cc2)c(SCc2ccccc2)cc1Cl,inhibition of growth at 10 µM,[1],44%
same,inhibition of growth at 10 µM,MDA-MB-468,45%
same,inhibition of growth at 10 µM,MCF7,37%
same,inhibition of growth at 10 µM,T47D,35%
same,growth inhibition (GI),DU-145,inactive
same,inhibition of growth at 10 µM,PC-3,36%
same,inhibition of growth at 10 µM,A498,25%
same,growth inhibition (GI),NCI/ADR-RES,inactive
same,inhibition of growth at 10 µM,LOX IMVI,12%
same,inhibition of growth at 10 µM,OVCAR-3,24%
same,inhibition of growth at 10 µM,UACC-62,49%
same,inhibition of growth at 10 µM,SK-MEL-2,32%
same,inhibition of growth at 10 µM,SF-268,16%
same,inhibition of growth at 10 µM,SW-620,4%
same,inhibition of growth at 10 µM,SNB-75,43%
same,inhibition of growth at 10 µM,KM12,16%
same,growth inhibition (GI),HT-29,inactive
same,inhibition of growth at 10 µM,HOP-92,63%
same,inhibition of growth at 10 µM,NCI-H460,10%
same,inhibition of growth at 10 µM,A549,21%
same,inhibition of growth at 10 µM,SR,29%
same,inhibition of growth at 10 µM,MOLT-4,31%
same,inhibition of growth at 10 µM,RPMI-8226,41%
same,inhibition of growth at 10 µM,K562,34%
same,inhibition of growth at 10 µM,HL-60(TB),28%
